Measured values taken from article PMC11249953, “c-KIT inhibitors reduce pathology and improve behavior in the Tg(SwDI) model of Alzheimer’s disease” (Life Science Alliance, 2024).
Where “and” joins values, the source holds several entries; their conditions need not be identical. Equal values may be shown once.

Tests used:
PIP5K1A = biological target: T1, PIP5K1A (Homo sapiens, UniProt Q99755); test: KINOMEscan competition binding, PIP5K1A; conditions: 10 µM compound; for remaining binding at 10 µM: lower = stronger binding, read-out: PIP5K1A %Ctrl @ 10000nM (POC)
T1 construct: DNA label for qPCR read-out (T7 phage fusion or DNA tag); purchased Eurofins DiscoverX Corporation; host or cells: T7 phage in E. coli (BL21-derived) or HEK-293
Description: (§1) The KINOMEscan screening platform (Eurofins DiscoverX Corporation) was performed using active site-directed competition binding assay to quantitatively measure interactions between BK40143 and BK40197 and more than 450 human kinases and disease relevant mutant variants. […] Screening “hits” are identified by measuring the amount of kinase captured in test (BK40143 and BK40197) versus control samples by using a quantitative and ultra-sensitive qRT-PCR method that detects the associated DNA label. BK40143 and BK40197 were screened at 10 µM concentration, and results for primary screen binding interactions were reported as “% Ctrl” (POC), where lower numbers indicate stronger hits and calculated as follows: [test compound signal−positive control signal/negative control signal−positive control signal]×100
(§2) negative control = DMSO (100% Ctrl)
(§3) positive control = control compound (0% Ctrl)
(§4) Based on screening data from of profiled compounds, a proportional relationship between primary screening results and corresponding compound/target affinities can be described as binding constants (Kd values) for the indicated ranges of POC values with tighter binding (higher affinity) interactions associated with lower POC values and weaker binding (lower affinity) associated with higher POC values. Briefly, kinase-tagged T7 phage strains were grown in parallel in 24-well blocks in an E. coli host derived from the BL21 strain. E. coli were grown to log-phase and infected with T7 phage from a frozen stock (multiplicity of infection = 0.4) and incubated with shaking at 32°C until lysis (90–150 min). The lysates were centrifuged (6,000g) and filtered (0.2 μm) to remove cell debris. The remaining kinases were produced in HEK-293 cells and subsequently tagged with DNA for qRT-PCR detection. Streptavidin-coated magnetic beads were treated with biotinylated small molecule ligands for 30 min at RT to generate affinity resins for kinase assays. The liganded beads were blocked with excess biotin and washed with blocking buffer (1% BSA, 0.05% Tween 20, 1 mM DTT; SeaBlock [Pierce]) to remove unbound ligand and to reduce non-specific phage binding. Binding reactions were assembled by combining kinases, liganded affinity beads, and test compounds in 1x binding buffer (20% 0.17x PBS, 0.05% Tween 20, 6 mM DTT; SeaBlock). Test compounds were prepared as 100x stocks in 100% DMSO and directly diluted into the assay. All reactions were performed in polypropylene 384-well plates in a final volume of 0.02 ml. The assay plates were incubated at RT with shaking for 1 h and the affinity beads were washed with wash buffer (1x PBS, 0.05% Tween 20). […] The kinase concentration in the eluates was measured by qRT-PCR.

mice = test: Novel object recognition, source data sheet NOR (mouse line not given); assay type: in vivo; set-up: key to Probe: DI (Discrimination Index: Novel / Total) / Familiarization: DI / Familiarization: DI, group mean / Familiarization DI: DI = novel-object exploration time / total exploration time of both objects; Familiarization: Total / Familiarization B / Familiarization Total: unit not given here; conditions: for Familiarization: A (exploration of object A) / Familiarization: B (exploration of object B) / Familiarization: DI / Familiarization: Total / Probe: DI (Discrimination Index: Novel / Total) / Probe: Familiar / Probe: Novel / Probe: Total: individual mice; for Probe DI: Discrimination Index: Novel / Total; for Probe DI / Familiarization Total / Familiarization B / Familiarization DI / Probe Familiar / Probe Total / Probe Novel / % Difference: one value per mouse; for Familiarization Total / Familiarization B / Familiarization DI / Probe Familiar / Probe Total / Probe Novel: novel object recognition; for Familiarization Total: A + B; for Familiarization B: object B; for Probe Familiar: familiar object; for Probe Total: novel + familiar; for Probe Novel: novel object; for % Difference: probe DI minus familiarization DI, Exclude trials where mice explored <1s
Description: Novel object recognition was carried out using a 50 × 50 cm arena with clear walls covered by brown construction paper. Mice were habituated to the room for 30 min each day, before being allowed to freely explore the arena for 5 min two times, for 3 d. On the 4th d, two identical objects were placed in the arena in opposite adjacent corners, 10 cm from the corner of the arena. Mice were placed along the wall opposite from the objects and allowed to freely explore for 10 min. Approach behavior (extending nose toward the object) toward both objects was recorded manually using handheld stop watches and compared with ensure there was no preference for either neutral object. For the probe trial, one object was removed and replaced with a novel object, and mice were again allowed to freely explore for 10 min, with approach time towards the novel and familiar objects recorded. Trials in which the mice explored for less than 1 s were excluded. Discrimination index was calculated by dividing time spent exploring the novel object by total time exploring both objects and was compared for treated versus control animals.

CIT = biological target: T2, CIT (Homo sapiens, UniProt O14578); test: KINOMEscan competition binding, CIT; conditions: 10 µM compound; for remaining binding at 10 µM: lower = stronger binding, read-out: CIT %Ctrl @ 10000nM (POC)
T2 construct: DNA label for qPCR read-out (T7 phage fusion or DNA tag); purchased Eurofins DiscoverX Corporation; host or cells: T7 phage in E. coli (BL21-derived) or HEK-293
Description: as §1, §2, §3, §4

[1] = tested on: IBA1+ microglia of TgAPP mice; test: IBA1 staining and microglial morphological analysis (Imaris); assay type: in vivo, mouse; conditions: BK40143 5 mg/kg, BK40197 45 mg/kg, vs DMSO
Description: (§5) Staining for amyloid-beta and microglia was performed on left brain hemispheres collected from treated and untreated mice. Brains were cryoprotected with 30% sucrose and sectioned at 30 μm on a cryostat. Sections were then treated with an anti-amyloid beta (6E10, cat. #803001; BioLegend) or anti-IBA1 (cat. # 018-28523; Wako Chemicals) primary followed by either an AlexaFluor secondary (Thermo Fisher Scientific) and DAPI mounting medium (Vector Labs) or a biotinylated secondary and 3, 3′ diaminobenzidine chromogen substrate. Slides were imaged on either a Leica DMi8 light microscope or a Zeiss LSM 800 confocal microscope.
63x z-stack images (0.19 μm intervals) of IBA1 stained microglia from treated and untreated mice were collected on a Zeiss LSM confocal microscope. 3D images were then analyzed using the “surfaces” plug-in in Imaris 10.0 to ascertain cell-surface area. Individual microglial surface areas were calculated in the advanced statistics tab of Imaris.

KIT = biological target: T3, KIT (Homo sapiens, UniProt P10721); test: KINOMEscan competition binding, KIT; conditions: 10 µM compound; for remaining binding at 10 µM: lower = stronger binding, read-out: KIT %Ctrl @ 10000nM (POC)
T3 construct: DNA label for qPCR read-out (T7 phage fusion or DNA tag); purchased Eurofins DiscoverX Corporation; host or cells: T7 phage in E. coli (BL21-derived) or HEK-293
Description: as §1, §2, §3, §4

ABL1 = biological target: T4, ABL1 (Homo sapiens, UniProt P00519); test: KINOMEscan competition binding, ABL1; conditions: 10 µM compound; for remaining binding at 10 µM: lower = stronger binding, read-out: ABL1 %Ctrl @ 10000nM
T4 construct: DNA label for qPCR read-out (T7 phage fusion or DNA tag); purchased Eurofins DiscoverX Corporation; host or cells: T7 phage in E. coli (BL21-derived) or HEK-293
Description: as §1, §2, §3, §4

[2] = tested on: amyloid-beta in TgAPP mice; test: Immunohistochemistry for amyloid-beta (6E10), hippocampus; assay type: in vivo, mouse; conditions: BK40143 5 mg/kg, BK40197 45 mg/kg, vs DMSO
Description: as §5

T4 sequence (P00519 whole entry, the tested form may be a part): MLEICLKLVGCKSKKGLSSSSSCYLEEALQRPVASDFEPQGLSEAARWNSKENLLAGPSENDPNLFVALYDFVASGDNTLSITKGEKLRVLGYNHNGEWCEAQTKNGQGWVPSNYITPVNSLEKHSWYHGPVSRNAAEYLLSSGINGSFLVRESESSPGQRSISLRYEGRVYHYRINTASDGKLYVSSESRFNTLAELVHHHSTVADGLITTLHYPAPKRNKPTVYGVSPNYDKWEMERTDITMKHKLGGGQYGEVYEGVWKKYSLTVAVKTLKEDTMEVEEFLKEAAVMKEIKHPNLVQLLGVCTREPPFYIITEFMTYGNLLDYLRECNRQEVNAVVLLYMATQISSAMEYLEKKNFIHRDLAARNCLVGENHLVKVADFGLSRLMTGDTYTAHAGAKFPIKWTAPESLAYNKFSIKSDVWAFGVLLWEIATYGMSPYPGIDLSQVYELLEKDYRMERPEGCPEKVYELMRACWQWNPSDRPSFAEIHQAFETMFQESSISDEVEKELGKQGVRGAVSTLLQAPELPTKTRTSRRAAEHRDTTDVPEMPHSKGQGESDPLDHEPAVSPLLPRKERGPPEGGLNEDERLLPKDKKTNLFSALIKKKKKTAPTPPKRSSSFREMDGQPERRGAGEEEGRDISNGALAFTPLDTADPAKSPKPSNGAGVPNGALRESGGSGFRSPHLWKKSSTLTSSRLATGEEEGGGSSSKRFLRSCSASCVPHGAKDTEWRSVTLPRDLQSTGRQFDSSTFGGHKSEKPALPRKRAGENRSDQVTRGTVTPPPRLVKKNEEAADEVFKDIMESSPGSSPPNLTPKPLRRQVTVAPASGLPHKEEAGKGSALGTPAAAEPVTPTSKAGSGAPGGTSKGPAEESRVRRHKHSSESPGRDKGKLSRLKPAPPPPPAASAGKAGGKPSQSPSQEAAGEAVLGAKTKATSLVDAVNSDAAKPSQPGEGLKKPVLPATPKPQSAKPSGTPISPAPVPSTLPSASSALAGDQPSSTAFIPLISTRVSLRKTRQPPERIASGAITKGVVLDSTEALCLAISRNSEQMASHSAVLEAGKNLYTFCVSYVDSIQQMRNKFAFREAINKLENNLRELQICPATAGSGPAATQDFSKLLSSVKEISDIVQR
T1 sequence (Q99755 whole entry, the tested form may be a part): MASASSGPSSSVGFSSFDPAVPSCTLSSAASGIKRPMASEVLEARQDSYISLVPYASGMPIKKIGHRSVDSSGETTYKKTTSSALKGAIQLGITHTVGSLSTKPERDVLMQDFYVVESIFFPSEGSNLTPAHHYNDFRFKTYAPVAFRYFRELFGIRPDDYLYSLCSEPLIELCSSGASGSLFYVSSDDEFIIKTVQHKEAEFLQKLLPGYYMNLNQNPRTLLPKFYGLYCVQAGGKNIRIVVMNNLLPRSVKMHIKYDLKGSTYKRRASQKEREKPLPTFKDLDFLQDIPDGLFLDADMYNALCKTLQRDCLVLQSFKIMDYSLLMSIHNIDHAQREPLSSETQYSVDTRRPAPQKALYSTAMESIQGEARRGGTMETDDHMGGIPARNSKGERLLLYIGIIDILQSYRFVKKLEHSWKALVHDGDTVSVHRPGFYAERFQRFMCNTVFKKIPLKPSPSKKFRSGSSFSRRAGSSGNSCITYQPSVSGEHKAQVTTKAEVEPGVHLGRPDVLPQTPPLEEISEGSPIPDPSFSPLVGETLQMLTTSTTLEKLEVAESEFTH
T2 sequence (O14578 whole entry, the tested form may be a part): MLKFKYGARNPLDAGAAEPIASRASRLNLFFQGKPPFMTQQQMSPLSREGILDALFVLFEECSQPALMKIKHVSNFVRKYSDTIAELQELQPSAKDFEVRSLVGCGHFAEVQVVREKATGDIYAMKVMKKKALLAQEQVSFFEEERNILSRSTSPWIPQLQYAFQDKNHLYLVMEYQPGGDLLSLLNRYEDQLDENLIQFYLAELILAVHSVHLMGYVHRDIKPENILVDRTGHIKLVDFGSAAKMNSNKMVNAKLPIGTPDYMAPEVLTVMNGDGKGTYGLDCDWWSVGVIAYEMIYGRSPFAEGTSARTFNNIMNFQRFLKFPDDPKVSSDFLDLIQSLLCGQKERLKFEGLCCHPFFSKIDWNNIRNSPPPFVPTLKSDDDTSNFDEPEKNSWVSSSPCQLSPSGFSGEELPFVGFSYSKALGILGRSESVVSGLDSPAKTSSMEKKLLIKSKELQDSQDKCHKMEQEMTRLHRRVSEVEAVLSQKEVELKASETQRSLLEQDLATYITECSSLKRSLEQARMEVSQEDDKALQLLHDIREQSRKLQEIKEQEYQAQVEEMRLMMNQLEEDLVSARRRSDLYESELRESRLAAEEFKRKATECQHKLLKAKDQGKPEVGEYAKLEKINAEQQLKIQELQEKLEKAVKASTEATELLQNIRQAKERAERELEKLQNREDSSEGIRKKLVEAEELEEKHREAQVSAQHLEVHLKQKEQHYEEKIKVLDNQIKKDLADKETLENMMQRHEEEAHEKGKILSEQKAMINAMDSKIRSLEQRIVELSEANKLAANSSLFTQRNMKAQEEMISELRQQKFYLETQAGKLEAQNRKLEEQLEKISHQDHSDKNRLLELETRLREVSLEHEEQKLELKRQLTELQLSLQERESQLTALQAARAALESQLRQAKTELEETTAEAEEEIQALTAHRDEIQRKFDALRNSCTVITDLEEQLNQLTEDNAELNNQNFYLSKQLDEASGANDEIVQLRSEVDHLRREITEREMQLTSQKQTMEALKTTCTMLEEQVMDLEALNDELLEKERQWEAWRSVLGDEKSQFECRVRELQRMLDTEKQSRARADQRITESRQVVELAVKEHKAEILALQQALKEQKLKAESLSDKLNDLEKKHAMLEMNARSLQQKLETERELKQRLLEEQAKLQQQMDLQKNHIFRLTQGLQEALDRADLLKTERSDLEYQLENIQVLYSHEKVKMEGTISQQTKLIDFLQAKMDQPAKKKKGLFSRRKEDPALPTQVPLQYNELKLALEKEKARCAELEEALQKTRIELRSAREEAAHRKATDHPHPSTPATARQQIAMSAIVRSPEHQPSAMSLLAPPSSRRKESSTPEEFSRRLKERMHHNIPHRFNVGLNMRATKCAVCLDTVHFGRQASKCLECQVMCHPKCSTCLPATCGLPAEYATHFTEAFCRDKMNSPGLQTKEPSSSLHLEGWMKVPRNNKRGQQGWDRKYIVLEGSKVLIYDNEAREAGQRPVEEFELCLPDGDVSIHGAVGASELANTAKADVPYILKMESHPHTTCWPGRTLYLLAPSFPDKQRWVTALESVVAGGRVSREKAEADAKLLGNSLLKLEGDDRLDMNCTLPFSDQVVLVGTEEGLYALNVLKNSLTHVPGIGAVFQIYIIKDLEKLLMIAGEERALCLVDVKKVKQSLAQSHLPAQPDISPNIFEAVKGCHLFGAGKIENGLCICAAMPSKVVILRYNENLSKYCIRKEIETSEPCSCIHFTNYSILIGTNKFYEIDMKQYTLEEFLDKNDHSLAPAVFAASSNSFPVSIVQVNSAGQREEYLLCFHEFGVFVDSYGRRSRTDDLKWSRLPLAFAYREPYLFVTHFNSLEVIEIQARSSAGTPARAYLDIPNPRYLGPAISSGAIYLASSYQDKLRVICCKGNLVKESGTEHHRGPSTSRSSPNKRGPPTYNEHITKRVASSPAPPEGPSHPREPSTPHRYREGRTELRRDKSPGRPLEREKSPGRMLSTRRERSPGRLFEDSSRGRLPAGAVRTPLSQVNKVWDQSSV
T3 sequence (P10721 26-976): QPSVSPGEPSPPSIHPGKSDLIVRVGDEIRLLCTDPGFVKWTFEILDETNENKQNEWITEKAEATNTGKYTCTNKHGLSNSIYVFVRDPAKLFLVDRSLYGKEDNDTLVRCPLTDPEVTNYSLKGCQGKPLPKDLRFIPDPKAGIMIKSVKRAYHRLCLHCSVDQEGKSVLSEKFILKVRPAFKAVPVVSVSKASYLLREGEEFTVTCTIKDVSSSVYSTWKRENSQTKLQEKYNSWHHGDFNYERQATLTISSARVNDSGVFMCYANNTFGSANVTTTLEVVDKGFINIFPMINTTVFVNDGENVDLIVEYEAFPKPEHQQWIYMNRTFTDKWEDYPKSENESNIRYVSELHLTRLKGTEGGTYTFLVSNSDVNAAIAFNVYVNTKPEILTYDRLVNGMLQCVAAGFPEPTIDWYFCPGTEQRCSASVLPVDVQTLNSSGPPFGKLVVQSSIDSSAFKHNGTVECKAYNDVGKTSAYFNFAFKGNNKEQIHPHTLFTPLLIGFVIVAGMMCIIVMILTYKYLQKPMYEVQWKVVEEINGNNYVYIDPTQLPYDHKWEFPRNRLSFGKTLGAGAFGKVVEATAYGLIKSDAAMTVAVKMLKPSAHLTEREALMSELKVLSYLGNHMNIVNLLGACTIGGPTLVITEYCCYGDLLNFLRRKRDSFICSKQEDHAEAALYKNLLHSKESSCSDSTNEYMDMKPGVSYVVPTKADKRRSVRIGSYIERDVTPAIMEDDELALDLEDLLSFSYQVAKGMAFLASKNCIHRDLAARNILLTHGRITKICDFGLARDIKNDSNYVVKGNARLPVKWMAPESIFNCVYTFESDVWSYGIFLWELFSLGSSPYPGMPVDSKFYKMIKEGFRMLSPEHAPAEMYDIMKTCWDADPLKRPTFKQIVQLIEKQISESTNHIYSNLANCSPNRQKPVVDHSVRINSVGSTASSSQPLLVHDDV

Cc1cccc(-c2cc3nccc(Nc4ccccc4)c3s2)c1 [BK40143]
inhibition at 10 µM (PIP5K1A): 68% | remaining binding at 10 µM (PIP5K1A): 32% | Familiarization: DI, group mean (mice; 2.5mg/kg): 0.4194 | Probe: DI, group mean (mice; 2.5mg/kg): 0.6322 | Familiarization: A (exploration of object A) (mice; 2.5mg/kg, listed as 143): 79.74 and 23.94 and 6.51 and 4.1 and 1.73 and 91.39 and 3.94 | Familiarization: B (exploration of object B) (mice; 2.5mg/kg, listed as 143): 36.19 and 20.07 and 19.62 and 23.82 and 2.46 and 58.89 and 9.8 | Familiarization: DI (mice; 2.5mg/kg, listed as 143): 0.6878 and 0.544 and 0.2491 and 0.1468 and 0.4129 and 0.6081 and 0.2868 | Familiarization: Total (mice; 2.5mg/kg, listed as 143): 115.93 and 44.01 and 26.13 and 27.92 and 4.19 and 150.28 and 13.74 | Probe: DI (Discrimination Index: Novel / Total) (mice; 2.5mg/kg, listed as 143): 0.6527 and 0.5219 and 0.7012 and 0.6866 and 0 and 0.6684 and 0.5624 | Probe: Familiar (mice; 2.5mg/kg, listed as 143): 12.56 and 26.64 and 26.04 and 10.96 and 0.71 and 19.02 and 21.52 | Probe: Novel (mice; 2.5mg/kg, listed as 143): 23.6 and 29.08 and 61.12 and 24.01 and 0 and 38.34 and 27.66 | Probe: Total (mice; 2.5mg/kg, listed as 143): 36.16 and 55.72 and 87.16 and 34.97 and 0.71 and 57.36 and 49.18 | Familiarization: DI, group mean (mice; 5.0mg/kg): 0.4517 | Probe: DI, group mean (mice; 5.0mg/kg): 0.5431 | Familiarization: A (exploration of object A) (mice; 5.0mg/kg, listed as 143): 6.57 and 57.74 and 55.12 and 0 and 31.22 and 2.26 and 24.68 and 3.81 | Familiarization: B (exploration of object B) (mice; 5.0mg/kg, listed as 143): 6.09 and 45.42 and 59.49 and 0 and 28.62 and 34.43 and 1.4 and 35.06 and 3.14 | Familiarization: DI (mice; 5.0mg/kg, listed as 143): 0.519 and 0.5597 and 0.4809 and 0 and 0.4756 and 0.6175 and 0.4131 and 0.5482 | Familiarization: Total (mice; 5.0mg/kg, listed as 143): 12.66 and 103.16 and 114.61 and 0 and 28.62 and 65.65 and 3.66 and 59.74 and 6.95 | Probe: DI (Discrimination Index: Novel / Total) (mice; 5.0mg/kg, listed as 143): 0.5491 and 0.4762 and 0.6019 and 0.4523 and 0.4543 and 0.6392 and 0.6671 and 0.5538 and 0.5229 and 0.5147 | Probe: Familiar (mice; 5.0mg/kg, listed as 143): 31.58 and 54.9 and 31.99 and 22.78 and 6.63 and 10.02 and 2.44 and 2.49 and 12.81 and 27.34 | Probe: Novel (mice; 5.0mg/kg, listed as 143): 38.46 and 49.91 and 48.36 and 18.81 and 5.52 and 17.75 and 4.89 and 3.09 and 14.04 and 29 | Probe: Total (mice; 5.0mg/kg, listed as 143): 70.04 and 104.81 and 80.35 and 41.59 and 12.15 and 27.77 and 7.33 and 5.58 and 26.85 and 56.34 | Probe DI (mice; listed as 143): 0.8287 and 0.6842 and 0.7687 and 1 and 0 and 0.615 and 0.4318 and 0.5747 and 0.1499 and 0.6797 | Familiarization Total (mice; listed as 143): 4.02 and 1.72 and 5.39 and 2.97 and 7.23 and 16.69 and 3.49 and 11.99 and 18.68 and 5.99 | Familiarization B (mice; listed as 143): 4.02 and 0.91 and 0.51 and 1.41 and 5.2 and 7.29 and 2.89 and 7.23 and 11.16 and 3.62 | Familiarization DI (mice; listed as 143): 0 and 0.4709 and 0.9054 and 0.5253 and 0.2808 and 0.5632 and 0.1719 and 0.397 and 0.4026 and 0.3957 | Probe Familiar (mice; listed as 143): 0.62 and 0.78 and 0.31 and 0 and 0.83 and 2.41 and 0.5 and 20.09 and 39.82 and 2.04 | Probe Total (mice; listed as 143): 3.62 and 2.47 and 1.34 and 5.82 and 0.83 and 6.26 and 0.88 and 47.24 and 46.84 and 6.37 | Probe Novel (mice; listed as 143): 3 and 1.69 and 1.03 and 5.82 and 0 and 3.85 and 0.38 and 27.15 and 7.02 and 4.33 | % Difference (mice; listed as 143): 82.8729% and 21.328% and -13.6724% and 47.4747% and 5.18% and 17.7727% and 28.4089% | inhibition at 10 µM (CIT): 97.2% | remaining binding at 10 µM (CIT): 2.8% | microglial activation (IBA1 staining) [1]: significant reduction in microglial activation | surface area of microglia (Imaris) [1]: significantly reduced surface area of microglia | inhibition at 10 µM (KIT): 100% | remaining binding at 10 µM (KIT): 0% | inhibition at 10 µM (ABL1): 90% | remaining binding at 10 µM (ABL1): 10% | amyloid concentrations in dentate gyrus (6E10 staining) [2]: robustly decreased amyloid concentrations in the dentate gyrus of the hippocampus

Cc1cccc(-c2cc3nccc(N4CCOCC4)c3s2)c1 [BK40197]
inhibition at 10 µM (PIP5K1A): 94.9% | remaining binding at 10 µM (PIP5K1A): 5.1% | Probe DI (mice; listed as 197): 0.7189 and 0.4276 and 0.6036 and 0 and 0.3497 and 0.7629 and 0.5645 | Familiarization Total (mice; listed as 197): 6.07 and 3.17 and 0.72 and 1.59 and 2.09 and 99.73 and 4.98 and 1.54 and 46.43 | Familiarization B (mice; listed as 197): 4.54 and 2.11 and 0 and 0.44 and 2.09 and 67.09 and 3.73 and 0.91 and 31.96 | Familiarization DI (mice; listed as 197): 0.2521 and 0.3344 and 1 and 0.7233 and 0 and 0.3273 and 0.251 and 0.4091 and 0.3117 | Probe Familiar (mice; listed as 197): 3.8 and 3.44 and 1.78 and 0.31 and 0 and 59.03 and 0.92 and 1.62 | Probe Total (mice; listed as 197): 13.52 and 6.01 and 4.49 and 0.31 and 0 and 90.78 and 3.88 and 3.72 | Probe Novel (mice; listed as 197): 9.72 and 2.57 and 2.71 and 0 and 31.75 and 2.96 and 2.1 | % Difference (mice; listed as 197): 46.6876% and 9.324% and -39.6437% and 2.2463% and 51.1883% and 15.5425% | inhibition at 10 µM (CIT): 19% | remaining binding at 10 µM (CIT): 81% | microglial activation (IBA1 staining) [1]: significant reduction in microglial activation | surface area of microglia (Imaris) [1]: significantly reduced surface area of microglia | inhibition at 10 µM (KIT): 99.7% | remaining binding at 10 µM (KIT): 0.3% | inhibition at 10 µM (ABL1): 60% | remaining binding at 10 µM (ABL1): 40% | amyloid concentrations in dentate gyrus (6E10 staining) [2]: robustly decreased amyloid concentrations in the dentate gyrus of the hippocampus
